Results published in patent US11000033B2, “Ketone or oxime compound, and herbicide” (NISSAN CHEMICAL CORPORATION, priority 2014, dated 2021).

Experiments:
Assay type in all cases: in vivo
Scirpus juncoides = assay: Test Example 2: herbicidal activity, application during weed generation in submerged conditions (symbol B); conditions: Table 23; application herbicide amount 320 g/ha; grade 0-5 by criteria of Test Example 1
Procedure, shortened: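 Weeds emerging under flooded conditions were treated with compound formulated as an emulsion and diluted with water to the intended herbicide amount, poured onto the surface of 4 cm standing water. Seeds had been co-sown in alluvial soil; plants grew at 25° C. to 30° C. and were assessed after 3 weeks.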

Veronica persica = assay: Test Example 4: herbicidal effect by soil treatment (symbol R); conditions: application herbicide amount 320 g/ha
Procedure, shortened: (§1)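 Seeds were sown in sterilized diluvial soil, covered with about 1.5 cm of soil, and the soil surface was sprayed with a water-diluted emulsion of the compound at a predetermined rate. Plants grew in a greenhouse at 25° C. to 30° C.; effects were scored visually 3 weeks after application.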

soybean = assay: Test Example 4: effect on crop by soil treatment (symbol d); conditions: application herbicide amount 320 g/ha
Procedure, shortened: (§2)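 Greenhouse culture at 25° C. to 30° C. followed sowing of seed in spots on sterilized diluvial soil with a soil cover close to 1.5 cm thick.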

Lolium multiflorum Lam. = assay: Test Example 5: herbicidal effect by foliage application, plastic box (symbol K); conditions: 320 g/ha, 3 weeks after application
Procedure, shortened: (§3)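 Seeds were sown in sterilized diluvial soil, covered with about 1.5 cm of soil and grown 14 days in a greenhouse at 25° C. to 30° C. An emulsifiable formulation diluted in water to a set rate was sprayed over foliage, and injury was scored 3 weeks later.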

Avena fatua = assay: Test Example 5: herbicidal effect by foliage application, plastic box (symbol I); conditions: 320 g/ha, 3 weeks after application
Procedure, shortened: as §3

[1] = test system: Echinochloa crus-galli var. crus-galli; assay: Test Example 5: herbicidal effect by foliage application, plastic box (symbol H); conditions: 320 g/ha, 3 weeks after application
Procedure, shortened: as §3

corn = assay: Test Example 4: effect on crop by soil treatment (symbol c); conditions: application herbicide amount 320 g/ha
Procedure, shortened: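 Seeds were sown in spots on sterilized diluvial soil in a plastic box and covered with about 1.5 cm of soil. Plants were then grown in a greenhouse at 25° C. to 30° C.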

wheat = assay: Test Example 4: effect on crop by soil treatment (symbol e); conditions: application herbicide amount 320 g/ha
Procedure, shortened: as §2

Amaranthus retroflexus = assay: Test Example 5: herbicidal effect by foliage application, plastic box (symbol N); conditions: 320 g/ha, 3 weeks after application
Procedure, shortened: as §3

Apera spica-venti [2] = assay: Test Example 5: herbicidal effect by foliage application, plastic box (symbol L); conditions: 320 g/ha, 3 weeks after application
Procedure, shortened: as §3

Galium spurium = assay: Test Example 4: herbicidal effect by soil treatment (symbol Q); conditions: application herbicide amount 320 g/ha
Procedure, shortened: as §1

Stellaria media = assay: Test Example 4: herbicidal effect by soil treatment (symbol P); conditions: application herbicide amount 320 g/ha
Procedure, shortened: as §1

beet = assay: Test Example 5: effect on crop by foliage application, plastic box (symbol f); conditions: 320 g/ha, 3 weeks after application
Procedure, shortened: (§4)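 Crop seed is sown alongside grass and broadleaf weed species in spots in sterilized diluvial soil, then covered to a depth of about 1.5 cm. Plants grow in a greenhouse kept at 25° C. to 30° C.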

[3] = test system: Echinochloa crus-galli var. crus-galli; assay: Test Example 3: herbicidal effect by foliage application, Wagner pot (symbol H); conditions: application herbicide amount 320 g/ha
Procedure, shortened: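 Alluvial soil was flooded to a depth of 0.1–0.5 cm, seeded with the weeds and rice, and kept in a greenhouse at 25–30 °C. After 14 days of growth, the foliage received a small-sprayer application of emulsion diluted to the intended rate; injury was rated at 3 weeks.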

rapeseed = assay: Test Example 5: effect on crop by foliage application, plastic box (symbol g); conditions: 320 g/ha, 3 weeks after application
Procedure, shortened: as §4

Apera spica-venti [4] = assay: Test Example 4: herbicidal effect by soil treatment (symbol L); conditions: application herbicide amount 320 g/ha
Procedure, shortened: as §1

Row | SMILES | Herbicidal effect grade, B: Scirpus juncoides (Scirpus juncoides) | R: Veronica persica, herbicidal effect grade (Veronica persica) | d: soybean, effect on crop grade (soybean) | K: Lolium multiflorum Lam., herbicidal effect grade (Lolium multiflorum Lam.) | I: Avena fatua, herbicidal effect grade (Avena fatua) | H: Echinochloa crus-galli var. crus-galli, herbicidal effect grade [1] | c: corn, effect on crop grade (corn) | e: wheat, effect on crop grade (wheat) | N: Amaranthus retroflexus, herbicidal effect grade (Amaranthus retroflexus) | L: Apera spica-venti, herbicidal effect grade (Apera spica-venti [2]) | Q: Galium spurium, herbicidal effect grade (Galium spurium) | P: Stellaria media, herbicidal effect grade (Stellaria media) | f: beet, effect on crop grade (beet) | herbicidal effect on H (Echinochloa crus-galli var. crus-galli), grade 0-5 [3] | g: rapeseed, effect on crop grade (rapeseed) | L: Apera spica-venti, herbicidal effect grade (Apera spica-venti [4])
1 | CCOC(=O)C(C(=O)c1ccccn1)C1CC(O)=C(c2c(C)cc(C)cc2C)C1=O (stereo not shown) [2-013] | 0 (Herbicidal ratio of 5% or lower (almost no effect)) | 0 (Herbicidal ratio of 5% or lower (almost no effect)) | 0 (Herbicidal ratio of 5% or lower (almost no effect)) | 5 (Herbicidal ratio of 90% or more (almost completely withered)) | 3 (Herbicidal ratio of 40% or higher and lower than 70%) | 5 (Herbicidal ratio of 90% or more (almost completely withered)) | 0 (Herbicidal ratio of 5% or lower (almost no effect)) | 0 (Herbicidal ratio of 5% or lower (almost no effect)) | 0 (Herbicidal ratio of 5% or lower (almost no effect)) | 4 (Herbicidal ratio of 70% or higher and lower than 90%) | 0 (Herbicidal ratio of 5% or lower (almost no effect)) | 0 (Herbicidal ratio of 5% or lower (almost no effect)) | 0 (Herbicidal ratio of 5% or lower (almost no effect)) | 0 (Herbicidal ratio of 5% or lower (almost no effect)) | 4 (Herbicidal ratio of 70% or higher and lower than 90%) | 0 (Herbicidal ratio of 5% or lower (almost no effect))
2 | CCC(C)C(=O)CC1CC(O)=C(c2c(C)cc(C)cc2C)C1=O (stereo not shown) [2-024] | 0 (Herbicidal ratio of 5% or lower (almost no effect)) | 0 (Herbicidal ratio of 5% or lower (almost no effect)) | 0 (Herbicidal ratio of 5% or lower (almost no effect)) | 5 (Herbicidal ratio of 90% or more (almost completely withered)) | 2 (Herbicidal ratio of 20% or higher and lower than 40%) | 5 (Herbicidal ratio of 90% or more (almost completely withered)) | 0 (Herbicidal ratio of 5% or lower (almost no effect)) | 0 (Herbicidal ratio of 5% or lower (almost no effect)) | 0 (Herbicidal ratio of 5% or lower (almost no effect)) | 2 (Herbicidal ratio of 20% or higher and lower than 40%) | 0 (Herbicidal ratio of 5% or lower (almost no effect)) | 0 (Herbicidal ratio of 5% or lower (almost no effect)) | 0 (Herbicidal ratio of 5% or lower (almost no effect)) | 5 (Herbicidal ratio of 90% or more (almost completely withered)) | 3 (Herbicidal ratio of 40% or higher and lower than 70%) | 0 (Herbicidal ratio of 5% or lower (almost no effect))
3 | Cc1cc(C)c(C2=C(O)CC(CC(=O)C3CCCC3)C2=O)c(C)c1 (stereo not shown) [2-028] | 0 (Herbicidal ratio of 5% or lower (almost no effect)) | 0 (Herbicidal ratio of 5% or lower (almost no effect)) | 0 (Herbicidal ratio of 5% or lower (almost no effect)) | 5 (Herbicidal ratio of 90% or more (almost completely withered)) | 0 (Herbicidal ratio of 5% or lower (almost no effect)) | 5 (Herbicidal ratio of 90% or more (almost completely withered)) | 2 (Herbicidal ratio of 20% or higher and lower than 40%) | 0 (Herbicidal ratio of 5% or lower (almost no effect)) | 0 (Herbicidal ratio of 5% or lower (almost no effect)) | 1 (Herbicidal ratio of 5% or higher and lower than 20%) | 0 (Herbicidal ratio of 5% or lower (almost no effect)) | 0 (Herbicidal ratio of 5% or lower (almost no effect)) | 0 (Herbicidal ratio of 5% or lower (almost no effect)) | 5 (Herbicidal ratio of 90% or more (almost completely withered)) | 3 (Herbicidal ratio of 40% or higher and lower than 70%) | 2 (Herbicidal ratio of 20% or higher and lower than 40%)
4 | Cc1cc(C)c(C2=C(O)CC(CC(=O)C3CCCCC3)C2=O)c(C)c1 (stereo not shown) [2-030] | 0 (Herbicidal ratio of 5% or lower (almost no effect)) | 0 (Herbicidal ratio of 5% or lower (almost no effect)) | 0 (Herbicidal ratio of 5% or lower (almost no effect)) | 5 (Herbicidal ratio of 90% or more (almost completely withered)) | 1 (Herbicidal ratio of 5% or higher and lower than 20%) | 4 (Herbicidal ratio of 70% or higher and lower than 90%) | 1 (Herbicidal ratio of 5% or higher and lower than 20%) | 0 (Herbicidal ratio of 5% or lower (almost no effect)) | 0 (Herbicidal ratio of 5% or lower (almost no effect)) | 2 (Herbicidal ratio of 20% or higher and lower than 40%) | 0 (Herbicidal ratio of 5% or lower (almost no effect)) | 0 (Herbicidal ratio of 5% or lower (almost no effect)) | 0 (Herbicidal ratio of 5% or lower (almost no effect)) | 4 (Herbicidal ratio of 70% or higher and lower than 90%) | 3 (Herbicidal ratio of 40% or higher and lower than 70%) | 4 (Herbicidal ratio of 70% or higher and lower than 90%)
